Compound | melting point [°C]
O=C(C#Cc1ccc(CCN2CCCC2)cc1)Nc1ccc(-c2ccc(Cl)cc2)cc1 [Example 2.4, 3-[4-(2-pyrrolidin-1-ylethyl)phenyl]propynoic acid-(4′-chlorobiphenyl-4-yl)amide] | 217 to 218
CC#Cc1ccc(NC(=O)C#Cc2ccc(CCN3CCCC3)cc2)cc1 [Example 2.5, 3-[4-(2-pyrrolidin-1-ylethyl)phenyl]propynoic acid-(4-prop-1-ynylphenyl)amide] | 198 to 199
CCN(CC)CCOc1ccc(NC(=O)C#Cc2ccc(Cl)cc2Cl)cc1 [Example 3.4, 3-(2,4-dichlorophenyl)propynoic acid-[4-(2-diethylaminoethoxy)phenyl]amide] | 107 to 109
CN1CCN(Cc2ccc(NC(=O)C#Cc3ccc(-c4ccc(Cl)cc4)cc3)cc2)CC1 [Example 3.8, 3-(4′-chlorobiphenyl-4-yl)propynoic acid-[4-(4-methylpiperazin-1-ylmethyl)phenyl]amide] | 182 to 185
CC1CCCC(C)N1Cc1ccc(NC(=O)C#Cc2ccc(-c3ccc(Cl)cc3)cc2)cc1 (stereo not shown) [Example 3.9, 3-(4′-chlorobiphenyl-4-yl)propynoic acid-[4-(2,6-dimethylpiperidin-1-ylmethyl)phenyl]amide] | 158 to 163
COCCN(C)Cc1ccc(NC(=O)C#Cc2ccc(-c3ccc(Cl)cc3)cc2)cc1 [Example 3.11, 3-(4′-chlorobiphenyl-4-yl)propynoic acid-(4-{[(2-methoxyethyl)methylamino]methyl}phenyl)amide] | 130 to 133
CC1CC(C)CN(Cc2ccc(NC(=O)C#Cc3ccc(-c4ccc(Cl)cc4)cc3)cc2)C1 (stereo not shown) [Example 3.12, 3-(4′-chlorobiphenyl-4-yl)propynoic acid-[4-(3,5-dimethylpiperidin-1-ylmethyl)phenyl]amide] | 209 to 214
COC1CCN(Cc2ccc(NC(=O)C#Cc3ccc(-c4ccc(Cl)cc4)cc3)cc2)CC1 [Example 3.13, 3-(4′-chlorobiphenyl-4-yl)propynoic acid-[4-(4-methoxypiperidin-1-ylmethyl)phenyl]amide] | 227 to 234
CC1CCN(Cc2ccc(NC(=O)C#Cc3ccc(-c4ccc(Cl)cc4)cc3)cc2)CC1 [Example 3.14, 3-(4′-chlorobiphenyl-4-yl)propynoic acid-[4-(4-methylpiperidin-1-ylmethyl)phenyl]amide] | 263 to 268
CN(Cc1ccc(NC(=O)C#Cc2ccc(-c3ccc(Cl)cc3)cc2)cc1)CC1CC1 [Example 3.15, 3-(4′-chlorobiphenyl-4-yl)propynoic acid-{4-[(cyclopropylmethylmethylamino)methyl]phenyl}amide] | 164 to 167
O=C(C#Cc1ccc(-c2ccc(Cl)cc2)cc1)Nc1ccc(CN2CCC(O)(C(F)(F)F)CC2)cc1 [Example 3.17, 3-(4′-chlorobiphenyl-4-yl)propynoic acid-[4-(4-hydroxy-4-trifluoromethylpiperidin-1-ylmethyl)phenyl]amide] | 194 to 200
O=C(C#Cc1ccc(-c2ccc(Cl)cc2)cc1)Nc1ccc(CN2CCC(O)CC2)cc1 [Example 3.18, 3-(4′-chlorobiphenyl-4-yl)propynoic acid-[4-(4-hydroxy-1-piperidin-1-ylmethyl)phenyl]amide] | 243 to 247
O=C(C#Cc1ccc(-c2ccc(Cl)cc2)cc1)Nc1ccc2c(ccn2CCN2CCCC2)c1 [Example 3.19, 3-(4′-chlorobiphenyl-4-yl)propynoic acid-[1-(2-pyrrolidin-1-ylethyl)-1H-indol-5-yl]amide] | 224 to 227
O=C(C#Cc1ccc(-c2ccc(Cl)cc2)cc1)Nc1ccc(CN2CCCCC2)c(Cl)c1 [Example 3.20, 3-(4′-chlorobiphenyl-4-yl)propynoic acid-(3-chloro-4-piperidin-1-ylmethylphenyl)amide] | 277 to 281
CC1CC(C)CN(Cc2ccc(NC(=O)C#Cc3ccc(-c4ccc(Cl)cc4)cn3)cc2)C1 (stereo not shown) [Example 3.29, 3-[5-(4-chlorophenyl)pyridin-2-yl]propynoic acid-[4-(3,5-dimethylpiperidin-1-ylmethyl)phenyl]amide] | 195 to 197
CCN(CC)CCc1ccc(NC(=O)C#Cc2ccc(C(F)(F)F)cc2Cl)cc1 [Example 3.35, 3-(2-chloro-4-trifluoromethylphenyl)propynoic acid-[4-(2-diethylaminoethyl)phenyl]amide] | 145 to 150
CCN(CC)CCOc1ccc(NC(=O)C#Cc2ccc(C(F)(F)F)cc2Cl)cc1 [Example 3.38, 3-(2-chloro-4-trifluoromethylphenyl)propynoic acid-[4-(2-diethylaminoethoxy)phenyl]amide] | 194 to 197
CCN(CC)CCOc1ccc(N(C)C(=O)C#Cc2ccc(C(F)(F)F)cc2Cl)cc1 [Example 3.39] | 135 to 138
O=C(C#Cc1ccc(C(F)(F)F)cc1Cl)Nc1ccc(OCCn2cccn2)cc1 [Example 3.43, 3-(2-chloro-4-trifluoromethylphenyl)propynoic acid-[4-(2-pyrazol-1-ylethoxy)phenyl]amide] | 120 to 125

Compound | melting point [°C]
O=C(C#Cc1ccc(C(F)(F)F)cc1Cl)Nc1ccc(OCCn2cnnc2)cc1 [Example 3.44, 3-(2-chloro-4-trifluoromethylphenyl)propynoic acid-[4-(2-[1.2.4]triazol-4-ylethoxy)phenyl]amide] | 223 to 227
O=C(C#Cc1ccc(-c2ccc(Cl)cc2)cn1)Nc1ccc(CN2CCC(O)CC2)cc1 [Example 3.168, 3-[5-(4-chlorophenyl)pyridin-2-yl]propynoic acid-[4-(4-hydroxypiperidin-1-ylmethyl)phenyl]amide] | 186 to 190
CCN(CC)CCOc1ccc(NC(=O)C#Cc2ccc(Cl)cc2Cl)cc1Cl [Example 4.1, 3-(2,4-dichlorophenyl)propynoic acid-[3-chloro-4-(2-diethylaminoethoxy)phenyl]amide] | 98 to 100
CCN(CC)CCOc1ccc(NC(=O)C#Cc2ccc(-c3ccccc3)cc2)cc1Cl [Example 4.4, 3-biphenyl-4-ylpropynoic acid-[3-chloro-4-(2-diethylaminoethoxy)phenyl]amide] | 105 to 108
O=C(C#Cc1ccc(Cl)cc1)Nc1ccc2c(ccn2CCN2CCCC2)c1 [Example 4.9, 3-(4-chlorophenyl)propynoic acid-[1-(2-pyrrolidin-1-ylethyl)-1H-indol-5-yl]amide] | 135 to 144
O=C(C#Cc1ccc(C(F)(F)F)cc1Cl)Nc1ccc2c(ccn2CCN2CCCC2)c1 [Example 4.11, 3-(2-chloro-4-trifluoromethylphenyl)propynoic acid-[1-(2-pyrrolidin-1-ylethyl)-1H-indol-5-yl]amide] | 200 to 205
O=C(C#Cc1ccc(Cl)cc1Cl)Nc1ccc2oc(CCN3CCCC3)nc2c1 [Example 4.12, 3-(2,4-dichlorophenyl)propynoic acid-[2-(2-pyrrolidin-1-ylethyl)benzoxazol-5-yl]amide] | 130
CCN(CC)CCOc1ccc(NC(=O)C#Cc2ccc(C(F)(F)F)cc2Cl)cc1N [Example 4.22, 3-(2-chloro-4-trifluoromethylphenyl)propynoic acid-[3-amino-4-(2-diethylaminoethoxy)phenyl]amide] | 127 to 130
CCN(CC)CCOc1ccc(NC(=O)C#Cc2ccc(C(F)(F)F)cc2Cl)cc1NS(C)(=O)=O [Example 4.23, 3-(2-chloro-4-trifluoromethylphenyl)propynoic acid-[4-(3-diethylaminoethoxy)-3-methanesulfonylaminophenyl]amide] | 57 to 60
CCN(CC)CCOc1ccc(NC(=O)C#Cc2ccc(C(F)(F)F)cc2Cl)cc1F [Example 4.25, 3-(2-chloro-4-trifluoromethylphenyl)propynoic acid-[4-(3-diethylaminoethoxy)-3-fluorophenyl]amide] | 85 to 88
COc1cc(NC(=O)C#Cc2ccc(C(F)(F)F)cc2Cl)ccc1OCCN1CCC(C)CC1 [Example 4.270, 3-(2-chloro-4-trifluoromethylphenyl)propynoic acid-{3-methoxy-4-[2-(4-methylpiperidin-1-yl)ethoxy]phenyl}amide] | 207 to 209
COc1cc(NC(=O)C#Cc2ccc(C(F)(F)F)cc2Cl)ccc1OCCN1CC(C)CC(C)C1 (stereo not shown) [Example 4.271, 3-(2-chloro-4-trifluoromethylphenyl)propynoic acid-{4-[2-(3,5-dimethylpiperidin-1-yl)ethoxy]-3-methoxyphenyl}amide] | 196 to 201
COc1cc(NC(=O)C#Cc2ccc(C(F)(F)F)cc2Cl)ccc1OCCN1CCOCC1 [Example 4.273, 3-(2-chloro-4-trifluoromethylphenyl)propynoic acid-[3-methoxy-4-(2-morpholin-4-ylethoxy)phenyl]amide] | 209 to 211
COc1cc(NC(=O)C#Cc2ccc(C(F)(F)F)cc2Cl)ccc1OCCN1CCC(OC)CC1 [Example 4.274, 3-(2-chloro-4-trifluoromethylphenyl)propynoic acid-{3-methoxy-4-[2-(4-methoxypiperidin-1-yl)ethoxy]phenyl}amide] | 195 to 197
COc1cc(NC(=O)C#Cc2ccc(C(F)(F)F)cc2Cl)ccc1OCCN1CCC(C(N)=O)CC1 [Example 4.276, 1-(2-{4-[3-(2-chloro-4-trifluoromethylphenyl)propynoylamino]-2-methoxyphenoxy}ethyl)piperidine-4-carboxylic acid amide] | 150
COc1cc(NC(=O)C#Cc2ccc(C(F)(F)F)cc2Cl)ccc1OCCN1C(C)CCCC1C (stereo not shown) [Example 4.277, 3-(2-chloro-4-trifluoromethylphenyl)propynoic acid-{4-[2-(2,6-dimethylpiperidin-1-yl)ethoxy]-3-methoxyphenyl}amide] | 225 to 227
CCN(CC)CCOc1ccc(NC(=O)C#Cc2cccnc2)cc1Cl [Example 4.285, 3-pyridin-3-ylpropynoic acid-[3-chloro-4-(2-diethylaminoethoxy)phenyl]amide] | 118 to 120
CC1CCN(Cc2ccc(/C=C/C(=O)Nc3ccc(-c4ccc(Cl)cc4)cc3)cc2)CC1 [Example 5.2, (E)-N-(4′-chlorobiphenyl-4-yl)-3-[4-(4-methylpiperidin-1-ylmethyl)phenyl]acrylamide] | 207 to 208
